According to paper PMC2891831, “Insight into the Mechanisms of Adenovirus Capsid Disassembly from Studies of Defensin Neutralization” (PLoS Pathogens, 2010):

Assays:
[1] = test system: HAdV-3; assay: Infection assay (hexon staining), HAdV-3; assay type: cell-based, human adenovirus; details: 15 µM HNP1, A549 cells, vs. no defensin
Procedure: (§1) To determine whether sensitivity to α-defensins is a general property of HAdVs, serotypes representative of HAdV species A–F were tested for infectivity in the presence of 15 µM HD5 or HNP1 (Figure 1). Wild type HAdVs rather than vectors were used for these studies, and infectivity was assessed by staining for hexon production. […] These studies indicate that sensitivity to α-defensins is species specific. In addition, particular HAdV serotypes are not equally sensitive to all defensins, indicating defensin sequence specificity as well.
(§2) Figure 1 Sensitivity to neutralization by alpha-defensins is AdV species specific. HAdVs were incubated with 15 µM HD5 (A) or HNP1 (B) and assessed for infectivity on A549 cells. Data are the mean of the percent infectivity compared to control cells infected with each virus in the absence of defensin for at least three independent experiments ± SD. The upper limit for quantification of this assay is 200%. […]
(§3) Prior to use in this assay, each virus stock was titrated on A549 cells. […] In parallel, wells were infected with two-fold serial dilutions of each virus to establish a standard curve for quantification with an upper limit of 200%. […] Total well fluorescence above background was quantified with ImageJ software. For each virus, samples were quantified by nonlinear regression against the standard curve using Prism software (GraphPad Software, Inc., La Jolla, CA).

[2] = test system: HAdV-12; assay: Infection assay (hexon staining), HAdV-12; assay type: cell-based, human adenovirus; details: 15 µM HNP1, A549 cells, vs. no defensin
Procedure: as §1, §2, §3

[3] = test system: HAdV-14; assay: Infection assay (hexon staining), HAdV-14; assay type: cell-based, human adenovirus; details: 15 µM HNP1, A549 cells, vs. no defensin
Procedure: as §1, §2, §3

[4] = test system: Serotypes sensitive to HD5; assay: Infection assay (hexon staining), serotypes sensitive to HD5; assay type: cell-based, human adenovirus; details: 15 µM HNP1, A549 cells, vs. no defensin
Procedure: as §1, §2, §3

[5] = test system: HAdV-5; details: low micromolar concentrations; ref [13]; cited from earlier work
[6] = test system: HAdV-4 (species E); assay: Infection assay (hexon staining), HAdV-4; assay type: cell-based, human adenovirus; details: 15 µM HD5 or HNP1, A549 cells, hexon staining at ~48 h, vs. no defensin
Procedure: as §1, §2, §3

[7] = test system: HAdV-16; assay: Infection assay (hexon staining), HAdV-16; assay type: cell-based, human adenovirus; details: 15 µM HNP1, A549 cells, vs. no defensin
Procedure: as §1, §2, §3

HNP1: human alpha-defensin; synthetic, obtained from Peptides International
inhibition of infection [1]: only modest inhibition | inhibition of infection [2]: only modest inhibition | inhibition of infection [3]: only modest inhibition | sensitivity to neutralization (infectivity) [4]: generally sensitive | inhibition of HAdV-5 infection [5]: significantly inhibit HAdV-5 infection at low micromolar concentrations | sensitivity to neutralization (infectivity) [6]: resistant | inhibition of infection [7]: only modest inhibition
